Assay results published in PubChem BioAssay (NCI).
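Exposure lasted 48 hours, with cells grown in 96-well plates and compounds tested at five concentrations. Here, GI50 denotes the concentration required for 50% inhibition of growth. The concentration for full growth arrest is given as TGI.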

Legend:
Experiment in all cases: NCI tumour cell line growth inhibition, 48 h
SN12C renal = test system: SN12C renal
CAKI-1 renal = test system: CAKI-1 renal
SK-MEL-28 melanoma = test system: SK-MEL-28 melanoma
SF-295 CNS = test system: SF-295 CNS
HCT-116 colon = test system: HCT-116 colon
SK-MEL-2 melanoma = test system: SK-MEL-2 melanoma
CCRF-CEM leukemia = test system: CCRF-CEM leukemia
SF-268 CNS = test system: SF-268 CNS
OVCAR-4 ovarian = test system: OVCAR-4 ovarian
COLO 205 colon = test system: COLO 205 colon
A549 NSCLC = test system: A549 NSCLC
786-0 renal = test system: 786-0 renal
PC-3 prostate = test system: PC-3 prostate
MCF7 breast = test system: MCF7 breast
EKVX NSCLC = test system: EKVX NSCLC
IGROV1 ovarian = test system: IGROV1 ovarian
SNB-75 CNS = test system: SNB-75 CNS
RPMI-8226 leukemia = test system: RPMI-8226 leukemia
HCC-2998 colon = test system: HCC-2998 colon
NCI-H522 lung = test system: NCI-H522 lung
NCI-H23 lung = test system: NCI-H23 lung
TK-10 renal = test system: TK-10 renal
ACHN renal = test system: ACHN renal
SR leukemia = test system: SR leukemia
MOLT-4 leukemia = test system: MOLT-4 leukemia
OVCAR-5 ovarian = test system: OVCAR-5 ovarian
NCI-H226 lung = test system: NCI-H226 lung
SF-539 CNS = test system: SF-539 CNS
T-47D breast = test system: T-47D breast
DU-145 prostate = test system: DU-145 prostate
SK-MEL-5 melanoma = test system: SK-MEL-5 melanoma
BT-549 breast = test system: BT-549 breast
SW-620 colon = test system: SW-620 colon
HT29 colon = test system: HT29 colon
SK-OV-3 ovarian = test system: SK-OV-3 ovarian
HS 578T breast = test system: HS 578T breast
OVCAR-3 ovarian = test system: OVCAR-3 ovarian
UACC-257 melanoma = test system: UACC-257 melanoma
OVCAR-8 ovarian = test system: OVCAR-8 ovarian
SNB-19 CNS = test system: SNB-19 CNS
U251 CNS = test system: U251 CNS
MDA-MB-231 breast = test system: MDA-MB-231 breast
NCI-H460 lung = test system: NCI-H460 lung
UACC-62 melanoma = test system: UACC-62 melanoma
M14 melanoma = test system: M14 melanoma
LOX IMVI melanoma = test system: LOX IMVI melanoma
NCI/ADR-RES ovarian = test system: NCI/ADR-RES ovarian
K-562 leukemia = test system: K-562 leukemia
HCT-15 colon = test system: HCT-15 colon
MDA-MB-468 breast = test system: MDA-MB-468 breast
HOP-92 NSCLC = test system: HOP-92 NSCLC
A498 renal = test system: A498 renal
HL-60(TB) leukemia = test system: HL-60(TB) leukemia
UO-31 renal = test system: UO-31 renal
MALME-3M melanoma = test system: MALME-3M melanoma
KM12 colon = test system: KM12 colon
HOP-62 NSCLC = test system: HOP-62 NSCLC
MDA-MB-435 = test system: MDA-MB-435
RXF 393 renal = test system: RXF 393 renal

CC[C@@]12CC(C(=O)OC)=C3Nc4cc5c(cc4[C@@]34CCN(C[C@H]3O[C@H]31)[C@@H]24)[C@@H]1[C@H](O5)[C@@H](O)[C@@]2(CC)CC(C(=O)OC)=C3Nc4cc(OC)ccc4[C@@]34CCN1[C@@H]24
GI50 (SN12C renal): 1560 nM
TGI (SN12C renal): > 54 µM
GI50 (CAKI-1 renal): 142 nM
TGI (CAKI-1 renal): > 54 µM
GI50 (SK-MEL-28 melanoma): 1380 nM
TGI (SK-MEL-28 melanoma): > 54 µM
GI50 (SF-295 CNS): 891 nM
TGI (SF-295 CNS): > 44.7 µM
GI50 (HCT-116 colon): 253 nM
TGI (HCT-116 colon): 2930 nM
GI50 (SK-MEL-2 melanoma): 1610 nM
TGI (SK-MEL-2 melanoma): > 39 µM
GI50 (CCRF-CEM leukemia): 376 nM
TGI (CCRF-CEM leukemia): > 54 µM
GI50 (SF-268 CNS): 2990 nM
TGI (SF-268 CNS): > 54 µM
GI50 (OVCAR-4 ovarian): 656 nM
TGI (OVCAR-4 ovarian): > 54 µM
GI50 (COLO 205 colon): 356 nM
TGI (COLO 205 colon): 2770 nM
GI50 (A549 NSCLC): 706 nM
TGI (A549 NSCLC): > 54 µM
GI50 (786-0 renal): 267 nM
TGI (786-0 renal): > 54 µM
GI50 (PC-3 prostate): 657 nM
TGI (PC-3 prostate): > 54 µM
GI50 (MCF7 breast): 174 nM
TGI (MCF7 breast): > 54 µM
GI50 (EKVX NSCLC): 928 nM
TGI (EKVX NSCLC): > 54 µM
GI50 (IGROV1 ovarian): 548 nM
TGI (IGROV1 ovarian): > 22.8 µM
GI50 (SNB-75 CNS): 63.1 nM
TGI (SNB-75 CNS): > 54 µM
GI50 (RPMI-8226 leukemia): 136 nM
TGI (RPMI-8226 leukemia): 2210 nM
GI50 (HCC-2998 colon): 423 nM
TGI (HCC-2998 colon): 1950 nM
GI50 (NCI-H522 lung): 182 nM
TGI (NCI-H522 lung): 2840 nM
GI50 (NCI-H23 lung): 890 nM
TGI (NCI-H23 lung): 20.2 µM
GI50 (TK-10 renal): 219 nM
TGI (TK-10 renal): 52.3 µM
GI50 (ACHN renal): 727 nM
TGI (ACHN renal): 15.2 µM
GI50 (SR leukemia): 254 nM
TGI (SR leukemia): > 46.5 µM
GI50 (MOLT-4 leukemia): 1220 nM
TGI (MOLT-4 leukemia): 23.2 µM
GI50 (OVCAR-5 ovarian): 1520 nM
TGI (OVCAR-5 ovarian): > 54 µM
GI50 (NCI-H226 lung): 485 nM
TGI (NCI-H226 lung): > 54 µM
GI50 (SF-539 CNS): 416 nM
TGI (SF-539 CNS): > 54 µM
GI50 (T-47D breast): 466 nM
TGI (T-47D breast): > 54 µM
GI50 (DU-145 prostate): 5.67 µM
TGI (DU-145 prostate): > 54 µM
GI50 (SK-MEL-5 melanoma): 370 nM
TGI (SK-MEL-5 melanoma): 2290 nM
GI50 (BT-549 breast): 307 nM
TGI (BT-549 breast): > 13.1 µM
GI50 (SW-620 colon): 1810 nM
TGI (SW-620 colon): > 54 µM
GI50 (HT29 colon): 228 nM
TGI (HT29 colon): > 54 µM
GI50 (SK-OV-3 ovarian): 336 nM
TGI (SK-OV-3 ovarian): 5.48 µM
GI50 (HS 578T breast): 128 nM
TGI (HS 578T breast): > 54 µM
GI50 (OVCAR-3 ovarian): 453 nM
TGI (OVCAR-3 ovarian): 13.4 µM
GI50 (UACC-257 melanoma): 436 nM
TGI (UACC-257 melanoma): > 54 µM
GI50 (OVCAR-8 ovarian): 736 nM
TGI (OVCAR-8 ovarian): > 54 µM
GI50 (SNB-19 CNS): 660 nM
TGI (SNB-19 CNS): > 40.4 µM
GI50 (U251 CNS): 911 nM
TGI (U251 CNS): > 54 µM
GI50 (MDA-MB-231 breast): 330 nM
TGI (MDA-MB-231 breast): > 40.3 µM
GI50 (NCI-H460 lung): 1370 nM
TGI (NCI-H460 lung): > 54 µM
GI50 (UACC-62 melanoma): 168 nM
TGI (UACC-62 melanoma): 3.83 µM
GI50 (M14 melanoma): 416 nM
TGI (M14 melanoma): > 54 µM
GI50 (LOX IMVI melanoma): 273 nM
TGI (LOX IMVI melanoma): 1250 nM
GI50 (NCI/ADR-RES ovarian): 731 nM
TGI (NCI/ADR-RES ovarian): 20.7 µM
GI50 (K-562 leukemia): 218 nM
TGI (K-562 leukemia): > 54 µM
GI50 (HCT-15 colon): 293 nM
TGI (HCT-15 colon): 4.03 µM
GI50 (MDA-MB-468 breast): 181 nM
TGI (MDA-MB-468 breast): 1200 nM
GI50 (HOP-92 NSCLC): 248 nM
TGI (HOP-92 NSCLC): > 43.7 µM
GI50 (A498 renal): 698 nM
TGI (A498 renal): 24.7 µM
GI50 (HL-60(TB) leukemia): 74.8 nM
TGI (HL-60(TB) leukemia): 1270 nM
GI50 (UO-31 renal): 167 nM
TGI (UO-31 renal): > 26 µM
GI50 (MALME-3M melanoma): 605 nM
TGI (MALME-3M melanoma): > 43.1 µM
GI50 (KM12 colon): 939 nM
TGI (KM12 colon): > 54 µM
GI50 (HOP-62 NSCLC): 313 nM
TGI (HOP-62 NSCLC): > 54 µM
GI50 (MDA-MB-435): 320 nM
TGI (MDA-MB-435): > 54 µM
GI50 (RXF 393 renal): 1150 nM
TGI (RXF 393 renal): 6.01 µM
